Experimental data taken from patent publication US9066516B2, “Uses of thaxtomin and thaxtomin compositions as herbicides” (priority 2008, dated 2015).

How the values were obtained:
Type in all cases: in vivo
smallflower sedge = experiment: Greenhouse test cyhalofop + thaxtomin A (Example 7); settings: Cyhalofop 6.5 oz/acre, no thx A, 21-day evaluation
Procedure: (§1) Cyhalofop (2-[4-(4-cyano-2-fluorophenoxy)phenoxy]propanoic acid, butyl ester) is also mixed together with adjuvant containing ethyl oleate, polyethylene dialky ester and ethoxylated nonylphenol (2.5% v/v) and increasing concentrations of thaxtomin A (purified from the ATCC strain 49003) at concentrations 0.1, 0.2 and 0.4 mg/ml. The concentrations of the 2-[4-(4-cyano-fluorophenoxy)phenoxy]propanoic acid, butyl ester before dilution are 29.6% (2.38 lb/gal) and 21.7% (2 lb/gal), respectively. The effect of these mixtures on the growth of common water plantain, red stem, smallflower sedge and sprangletop is determined in the greenhouse. Similarly, rice plants of variety M104 are grown and tested for phytotoxic effects, and all plants are evaluated 7, 14, and 21 days after treatment.

sprangletop = experiment: as above; settings: Cyhalofop 6.5 oz/acre, no thx A, 21-day evaluation
Procedure: as §1

red stem = experiment: as above; settings: Cyhalofop 6.5 oz/acre, no thx A; 21-day evaluation
Procedure: as §1

common water plantain = experiment: as above; settings: Cyhalofop 6.5 oz/acre, no thx A; 21-day evaluation
Procedure: as §1

sedge = experiment: Greenhouse synergy test MBI-005 + commercial herbicides (Example 11); settings: cyhalofop 1.176 mg/mL, 14 days
Procedure: (§2) The test species barnyard grass, ragweed, sedge, and broad-leaf mustard were used for the valuation of synergy between MBI-005 and the rice herbicides clomazone, penoxsulam, cyhalofop, fenoxaprop-p-ethyl, bispyribac-sodium, thiobencarb, and propanil.
(§3) There were 3 replicates per treatment which were sprayed with approximately ⅔ ml per replicate. The treatments were completely randomized and kept in a greenhouse at 25° C. The efficacy was rated at 7 and 14 days post treatment.

broad-leaf mustard = experiment: as above; settings: cyhalofop 0.051 mg/mL, 14 days
Procedure: as §2, §3

Q: For CCCCOC(=O)C(C)Oc1ccc(Oc2ccc(C#N)cc2F)cc1 (centres unmarked) [Cyhalofop, 2-[4-(4-cyano-2-fluorophenoxy)phenoxy]propanoic acid, butyl ester], which Sedge % control (smallflower sedge) is on record?
A: The Sedge % control was 0%.

Q: What about the Sedge % control (smallflower sedge; listed as Clincher CA) of the same compound?
A: The Sedge % control was “poor on sedges”.

Q: What about the Sprangletop % control (sprangletop) of the same compound?
A: The Sprangletop % control was 90%.

Q: And the Sprangletop % control (sprangletop; listed as Clincher CA)?
A: The Sprangletop % control was “good efficacy against grass weeds”.

Q: What about the Redstem % control (red stem) of the same compound?
A: Its Redstem % control is 75%.

Q: And the Waterplantain % control (common water plantain)?
A: The Waterplantain % control was 8%.

Q: And the “% Control Product” value (sedge)?
A: Its value is 3.3%.

Q: What about the “% Control Product” value (broad-leaf mustard) of the same compound?
A: The value was 11.7%.
